# Key:
# [1] = target: Serine/threonine-protein kinase 35 (Homo sapiens) (UniProt Q8TDR2); settings: Compound concentration 100.0 nM
# [2] = target: Serine/threonine-protein kinase SIK3 (Homo sapiens) (UniProt Q9Y2K2); settings: Compound concentration 100.0 nM
# [3] = target: Alpha-2B adrenergic receptor (Homo sapiens) (UniProt P18089); settings: Compound concentration 10.0 uM
# [4] = target: Homeodomain-interacting protein kinase 2 (Homo sapiens) (UniProt Q9H2X6); settings: Compound concentration 100.0 nM
# [5] = target: Receptor tyrosine-protein kinase erbB-3 (Homo sapiens) (UniProt P21860); settings: Compound concentration 100.0 nM
# [6] = target: Sigma intracellular receptor 2 (Homo sapiens) (UniProt Q5BJF2); settings: Compound concentration 10.0 uM
# Chain of Sigma intracellular receptor 2 (Homo sapiens) (Q5BJF2 whole entry): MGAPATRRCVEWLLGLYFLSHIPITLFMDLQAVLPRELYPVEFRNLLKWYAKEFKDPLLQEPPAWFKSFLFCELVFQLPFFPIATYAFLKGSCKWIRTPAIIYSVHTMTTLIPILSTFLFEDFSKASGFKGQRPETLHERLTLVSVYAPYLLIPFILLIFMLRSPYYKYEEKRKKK
# [7] = system: Tyrosine-protein kinase ABL1 (Homo sapiens), P00519 [F317I]; settings: Compound concentration 100.0 nM
# [8] = target: Tyrosine-protein kinase receptor TYRO3 (Homo sapiens) (UniProt Q06418); settings: Compound concentration 100.0 nM
# [9] = target: Phosphorylase b kinase regulatory subunit alpha, liver isoform (Homo sapiens) (UniProt P46019); settings: Compound concentration 100.0 nM
# [10] = target: Mitogen-activated protein kinase 1 (Homo sapiens) (UniProt P28482); settings: Compound concentration 100.0 nM
# [11] = target: Serine/threonine-protein kinase Chk1 (Homo sapiens) (UniProt O14757); settings: Compound concentration 100.0 nM
# Chain of Serine/threonine-protein kinase Chk1 (Homo sapiens) (O14757 whole entry): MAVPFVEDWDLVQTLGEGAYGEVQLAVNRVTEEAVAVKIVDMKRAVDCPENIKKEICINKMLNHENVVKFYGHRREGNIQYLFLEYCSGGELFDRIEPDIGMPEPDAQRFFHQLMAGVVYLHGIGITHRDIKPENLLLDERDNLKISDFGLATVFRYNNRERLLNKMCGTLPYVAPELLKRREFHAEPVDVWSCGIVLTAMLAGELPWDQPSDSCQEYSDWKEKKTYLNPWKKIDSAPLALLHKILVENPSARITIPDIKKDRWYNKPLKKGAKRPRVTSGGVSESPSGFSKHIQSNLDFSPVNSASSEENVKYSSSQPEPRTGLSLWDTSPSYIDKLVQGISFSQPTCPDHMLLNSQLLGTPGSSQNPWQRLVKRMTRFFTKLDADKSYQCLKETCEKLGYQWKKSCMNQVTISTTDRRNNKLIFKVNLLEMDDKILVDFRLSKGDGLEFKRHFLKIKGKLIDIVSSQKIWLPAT
# [12] = target: Ribosomal protein S6 kinase alpha-5 (Homo sapiens) (UniProt O75582); settings: Compound concentration 100.0 nM
# [13] = target: Insulin-like growth factor 1 receptor (Homo sapiens) (UniProt P08069); settings: Compound concentration 100.0 nM
# Chain of Insulin-like growth factor 1 receptor (Homo sapiens) (P08069 31-736 limits assumed): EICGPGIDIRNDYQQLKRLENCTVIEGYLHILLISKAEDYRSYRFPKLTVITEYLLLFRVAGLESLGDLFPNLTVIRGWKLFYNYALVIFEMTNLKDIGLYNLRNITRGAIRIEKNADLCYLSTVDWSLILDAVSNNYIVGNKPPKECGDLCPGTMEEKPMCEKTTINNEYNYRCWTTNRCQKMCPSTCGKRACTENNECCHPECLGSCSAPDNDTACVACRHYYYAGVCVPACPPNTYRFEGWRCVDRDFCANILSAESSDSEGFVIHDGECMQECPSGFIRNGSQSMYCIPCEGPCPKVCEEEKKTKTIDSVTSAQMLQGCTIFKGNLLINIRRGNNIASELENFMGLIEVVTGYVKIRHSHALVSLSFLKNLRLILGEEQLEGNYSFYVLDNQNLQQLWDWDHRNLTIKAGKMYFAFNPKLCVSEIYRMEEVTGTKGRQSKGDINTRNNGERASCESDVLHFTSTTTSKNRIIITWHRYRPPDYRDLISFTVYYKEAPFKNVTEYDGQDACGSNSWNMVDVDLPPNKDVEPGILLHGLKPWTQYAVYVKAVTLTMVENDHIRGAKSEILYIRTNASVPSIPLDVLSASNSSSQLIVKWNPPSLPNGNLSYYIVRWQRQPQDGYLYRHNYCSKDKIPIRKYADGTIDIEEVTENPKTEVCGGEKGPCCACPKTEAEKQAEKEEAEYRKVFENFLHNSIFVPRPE
# Chain of Insulin-like growth factor 1 receptor (Homo sapiens) (P08069 741-1367 limits assumed): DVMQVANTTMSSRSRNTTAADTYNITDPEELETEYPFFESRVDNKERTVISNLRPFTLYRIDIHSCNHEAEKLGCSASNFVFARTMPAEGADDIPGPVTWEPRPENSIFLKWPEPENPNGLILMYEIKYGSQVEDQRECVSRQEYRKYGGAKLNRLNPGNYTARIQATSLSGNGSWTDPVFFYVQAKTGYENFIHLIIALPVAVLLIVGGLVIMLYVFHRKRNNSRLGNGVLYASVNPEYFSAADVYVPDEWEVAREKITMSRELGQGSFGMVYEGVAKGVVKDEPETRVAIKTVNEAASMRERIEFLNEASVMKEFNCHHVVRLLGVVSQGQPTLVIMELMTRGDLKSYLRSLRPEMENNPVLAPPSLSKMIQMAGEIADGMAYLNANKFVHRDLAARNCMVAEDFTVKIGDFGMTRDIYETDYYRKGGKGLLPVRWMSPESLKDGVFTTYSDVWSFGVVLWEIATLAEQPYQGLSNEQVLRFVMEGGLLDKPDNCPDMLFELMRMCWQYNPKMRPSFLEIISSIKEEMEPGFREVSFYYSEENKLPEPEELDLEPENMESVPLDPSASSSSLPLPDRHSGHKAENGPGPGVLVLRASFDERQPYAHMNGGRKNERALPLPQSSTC
# [14] = target: Testis-specific serine/threonine-protein kinase 1 (Homo sapiens) (UniProt Q9BXA7); settings: Compound concentration 100.0 nM
# [15] = target: Serine/threonine-protein kinase PknB (Mycobacterium tuberculosis) (UniProt P9WI81); settings: Compound concentration 100.0 nM
# [16] = target: Tyrosine-protein kinase Lyn (Homo sapiens) (UniProt P07948); settings: Compound concentration 100.0 nM
# [17] = target: TGF-beta receptor type-1 (Homo sapiens) (UniProt P36897); settings: Compound concentration 100.0 nM
# [18] = target: Ephrin type-A receptor 4 (Homo sapiens) (UniProt P54764); settings: Compound concentration 100.0 nM
# [19] = target: Serine/threonine-protein kinase Nek6 (Homo sapiens) (UniProt Q9HC98); settings: Compound concentration 100.0 nM
# [20] = target: Microtubule-associated serine/threonine-protein kinase 1 (Homo sapiens) (UniProt Q9Y2H9); settings: Compound concentration 100.0 nM
# [21] = target: Mitogen-activated protein kinase kinase kinase 7 (Homo sapiens) (UniProt O43318); settings: Compound concentration 100.0 nM
# Chain of Mitogen-activated protein kinase kinase kinase 7 (Homo sapiens) (O43318 whole entry, the tested form may be a part): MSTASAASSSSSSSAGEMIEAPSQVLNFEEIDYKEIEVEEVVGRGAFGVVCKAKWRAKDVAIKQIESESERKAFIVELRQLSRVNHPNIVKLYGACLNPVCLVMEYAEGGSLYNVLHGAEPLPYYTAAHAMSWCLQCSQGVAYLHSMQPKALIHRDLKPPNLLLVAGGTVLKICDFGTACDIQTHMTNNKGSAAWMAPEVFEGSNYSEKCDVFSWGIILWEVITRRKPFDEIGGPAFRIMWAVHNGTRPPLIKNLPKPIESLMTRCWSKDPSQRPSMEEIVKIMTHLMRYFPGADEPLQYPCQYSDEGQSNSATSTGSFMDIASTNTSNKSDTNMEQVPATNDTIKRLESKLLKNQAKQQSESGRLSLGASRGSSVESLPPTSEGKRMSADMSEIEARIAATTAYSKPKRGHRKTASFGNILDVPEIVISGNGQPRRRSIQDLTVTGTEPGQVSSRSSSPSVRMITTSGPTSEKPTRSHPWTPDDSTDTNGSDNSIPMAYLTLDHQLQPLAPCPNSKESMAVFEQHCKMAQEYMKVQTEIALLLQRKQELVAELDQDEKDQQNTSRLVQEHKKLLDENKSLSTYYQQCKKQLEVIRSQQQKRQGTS
# [22] = target: LIM domain kinase 2 (Homo sapiens) (UniProt P53671); settings: Compound concentration 100.0 nM
# [23] = target: Dual specificity tyrosine-phosphorylation-regulated kinase 1B (Homo sapiens) (UniProt Q9Y463); settings: Compound concentration 100.0 nM
# [24] = target: Cyclin-dependent kinase-like 1 (Homo sapiens) (UniProt Q00532); settings: Compound concentration 100.0 nM
# [25] = target: Cyclin-dependent kinase-like 2 (Homo sapiens) (UniProt Q92772); settings: Compound concentration 100.0 nM
# [26] = target: Serine/threonine-protein kinase WNK2 (Homo sapiens) (UniProt Q9Y3S1); settings: Compound concentration 100.0 nM
# [27] = target: Death-associated protein kinase 2 (Homo sapiens) (UniProt Q9UIK4); settings: Compound concentration 100.0 nM
# Chain of Death-associated protein kinase 2 (Homo sapiens) (Q9UIK4 whole entry, looked up): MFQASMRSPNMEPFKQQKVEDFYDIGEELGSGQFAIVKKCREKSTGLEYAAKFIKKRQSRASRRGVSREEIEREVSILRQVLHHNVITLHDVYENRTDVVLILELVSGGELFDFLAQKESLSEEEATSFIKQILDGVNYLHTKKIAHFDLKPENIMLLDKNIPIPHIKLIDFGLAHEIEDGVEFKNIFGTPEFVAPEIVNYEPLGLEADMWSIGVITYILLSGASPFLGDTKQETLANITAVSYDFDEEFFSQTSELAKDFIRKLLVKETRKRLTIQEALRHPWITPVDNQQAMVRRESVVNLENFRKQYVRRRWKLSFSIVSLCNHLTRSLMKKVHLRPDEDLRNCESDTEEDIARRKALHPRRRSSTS
# [28] = system: Mast/stem cell growth factor receptor Kit (Homo sapiens), P10721 [A829P]; settings: Compound concentration 100.0 nM
# [29] = target: Muscle, skeletal receptor tyrosine-protein kinase (Homo sapiens) (UniProt O15146); settings: Compound concentration 100.0 nM
# [30] = target: Mitotic checkpoint serine/threonine-protein kinase BUB1 (Homo sapiens) (UniProt O43683); settings: Compound concentration 100.0 nM
# Chain of Mitotic checkpoint serine/threonine-protein kinase BUB1 (Homo sapiens) (O43683 whole entry, looked up): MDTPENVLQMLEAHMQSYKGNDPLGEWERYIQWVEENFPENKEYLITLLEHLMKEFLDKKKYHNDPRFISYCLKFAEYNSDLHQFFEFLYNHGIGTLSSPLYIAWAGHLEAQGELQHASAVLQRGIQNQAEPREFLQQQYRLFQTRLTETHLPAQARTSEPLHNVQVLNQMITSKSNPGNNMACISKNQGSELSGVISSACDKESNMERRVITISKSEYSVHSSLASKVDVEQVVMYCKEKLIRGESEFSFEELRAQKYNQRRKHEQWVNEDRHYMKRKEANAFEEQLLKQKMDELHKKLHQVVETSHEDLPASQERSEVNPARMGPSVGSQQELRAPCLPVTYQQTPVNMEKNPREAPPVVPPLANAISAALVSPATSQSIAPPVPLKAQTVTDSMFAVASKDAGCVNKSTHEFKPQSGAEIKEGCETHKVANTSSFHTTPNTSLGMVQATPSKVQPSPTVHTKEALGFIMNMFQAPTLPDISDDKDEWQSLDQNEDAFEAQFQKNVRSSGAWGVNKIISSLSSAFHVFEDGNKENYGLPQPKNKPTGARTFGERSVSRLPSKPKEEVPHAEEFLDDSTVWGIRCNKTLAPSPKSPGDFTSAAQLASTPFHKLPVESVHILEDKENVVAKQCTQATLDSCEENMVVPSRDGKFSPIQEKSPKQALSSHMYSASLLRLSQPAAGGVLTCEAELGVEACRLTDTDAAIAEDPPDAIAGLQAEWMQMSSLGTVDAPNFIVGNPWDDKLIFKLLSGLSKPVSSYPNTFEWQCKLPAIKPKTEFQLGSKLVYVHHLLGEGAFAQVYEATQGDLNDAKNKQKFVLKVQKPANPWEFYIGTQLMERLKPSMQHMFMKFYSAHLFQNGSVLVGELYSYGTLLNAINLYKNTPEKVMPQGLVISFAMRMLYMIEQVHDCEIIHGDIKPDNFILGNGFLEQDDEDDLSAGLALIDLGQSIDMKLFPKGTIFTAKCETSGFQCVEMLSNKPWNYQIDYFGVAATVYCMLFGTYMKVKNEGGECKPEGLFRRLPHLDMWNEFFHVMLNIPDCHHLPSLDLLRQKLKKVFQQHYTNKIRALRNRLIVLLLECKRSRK
# [31] = target: Fibroblast growth factor receptor 4 (Homo sapiens) (UniProt P22455); settings: Compound concentration 100.0 nM
# Chain of Fibroblast growth factor receptor 4 (Homo sapiens) (P22455 22-802 limits assumed): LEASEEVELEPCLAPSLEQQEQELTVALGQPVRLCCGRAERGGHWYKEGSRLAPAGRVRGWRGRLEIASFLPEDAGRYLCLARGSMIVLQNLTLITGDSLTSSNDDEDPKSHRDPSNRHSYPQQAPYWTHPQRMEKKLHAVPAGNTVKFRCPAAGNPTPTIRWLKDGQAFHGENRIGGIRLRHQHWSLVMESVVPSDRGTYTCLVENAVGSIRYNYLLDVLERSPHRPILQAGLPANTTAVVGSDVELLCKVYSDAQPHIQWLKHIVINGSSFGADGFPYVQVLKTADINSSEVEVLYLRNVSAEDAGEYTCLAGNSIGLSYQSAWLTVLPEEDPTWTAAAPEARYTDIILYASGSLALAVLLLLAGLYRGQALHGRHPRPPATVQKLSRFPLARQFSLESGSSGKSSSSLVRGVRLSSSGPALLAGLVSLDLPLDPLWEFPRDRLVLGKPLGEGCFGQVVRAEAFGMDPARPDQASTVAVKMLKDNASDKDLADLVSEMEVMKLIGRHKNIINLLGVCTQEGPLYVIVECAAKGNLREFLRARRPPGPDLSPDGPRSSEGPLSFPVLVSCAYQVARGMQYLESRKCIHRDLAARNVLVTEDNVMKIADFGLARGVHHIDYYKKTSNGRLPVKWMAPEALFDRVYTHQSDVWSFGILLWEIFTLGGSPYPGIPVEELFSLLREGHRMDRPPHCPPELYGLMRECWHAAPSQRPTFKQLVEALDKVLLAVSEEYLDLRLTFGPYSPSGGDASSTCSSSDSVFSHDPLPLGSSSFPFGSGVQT
# [32] = target: Mitogen-activated protein kinase 8 (Homo sapiens) (UniProt P45983); settings: Compound concentration 100.0 nM
# [33] = target: Mitogen-activated protein kinase kinase kinase 3 (Homo sapiens) (UniProt Q99759); settings: Compound concentration 100.0 nM
# [34] = target: Phosphatidylinositol 5-phosphate 4-kinase type-2 gamma (Homo sapiens) (UniProt Q8TBX8); settings: Compound concentration 100.0 nM
# [35] = target: Atypical kinase COQ8A, mitochondrial (Homo sapiens) (UniProt Q8NI60); settings: Compound concentration 100.0 nM
# [36] = target: Cyclin-dependent kinase 19 (Homo sapiens) (UniProt Q9BWU1); settings: Compound concentration 100.0 nM
# [37] = system: Tyrosine-protein kinase ABL1 (Homo sapiens), P00519 [Q252H]; settings: Compound concentration 100.0 nM
# [38] = target: Serine/threonine-protein kinase Nek2 (Homo sapiens) (UniProt P51955); settings: Compound concentration 100.0 nM
# [39] = target: Casein kinase II subunit alpha' (Homo sapiens) (UniProt P19784); settings: Compound concentration 100.0 nM
# [40] = target: Receptor-interacting serine/threonine-protein kinase 1 (Homo sapiens) (UniProt Q13546); settings: Compound concentration 100.0 nM
# [41] = target: Serine/threonine-protein kinase 10 (Homo sapiens) (UniProt O94804); settings: Compound concentration 100.0 nM
# [42] = target: Serine/threonine-protein kinase ULK1 (Homo sapiens) (UniProt O75385); settings: Compound concentration 100.0 nM
# [43] = target: Transient receptor potential cation channel subfamily M member 6 (Homo sapiens) (UniProt Q9BX84); settings: Compound concentration 100.0 nM
# [44] = target: Mitogen-activated protein kinase kinase kinase 1 (Homo sapiens) (UniProt Q13233); settings: Compound concentration 100.0 nM
# [45] = target: Serine/threonine-protein kinase DCLK1 (Homo sapiens) (UniProt O15075); settings: Compound concentration 100.0 nM
smiles,measurement,setting,value
Cc1ccc(-c2cnc([C@@]3(O)CC[C@H](C(=O)O)C(C)(C)C3)s2)cc1Nc1cccc(C(F)(F)F)n1 [MRL-SYKi-NC],residual activity,[1],97.3%
same,residual activity,[2],100%
same,inhibition,[3],27%
same,residual activity,[4],73.5%
same,residual activity,[5],100%
same,inhibition,[6],27.4%
same,residual activity,[7],84.1%
same,residual activity,[8],100%
same,residual activity,[9],100%
same,residual activity,[10],100%
same,residual activity,[11],100%
same,residual activity,[12],71.4%
same,residual activity,[13],100%
same,residual activity,[14],100%
same,residual activity,[15],86.7%
same,residual activity,[16],100%
same,residual activity,[17],83%
same,residual activity,[18],100%
same,residual activity,[19],89.7%
same,residual activity,[20],100%
same,residual activity,[21],92.6%
same,residual activity,[22],100%
same,residual activity,[23],97.4%
same,residual activity,[24],75.6%
same,residual activity,[25],94.3%
same,residual activity,[26],98.6%
same,residual activity,[27],84.8%
same,residual activity,[28],61.5%
same,residual activity,[29],93.6%
same,residual activity,[30],100%
same,residual activity,[31],100%
same,residual activity,[32],63.7%
same,residual activity,[33],82.5%
same,residual activity,[34],97.5%
same,residual activity,[35],100%
same,residual activity,[36],95.3%
same,residual activity,[37],75.4%
same,residual activity,[38],100%
same,residual activity,[39],59.8%
same,residual activity,[40],95.9%
same,residual activity,[41],74.5%
same,residual activity,[42],73.1%
same,residual activity,[43],77.1%
same,residual activity,[44],96%
same,residual activity,[45],91.3%
Cc1cc(Nc2nccc(C)n2)cc(-c2cnc([C@@]3(O)CC[C@H](C(=O)O)C(C)(C)C3)s2)c1 [MRL-SYKi],residual activity,[1],100%
same,residual activity,[2],100%
same,inhibition,[3],-7.14%
same,residual activity,[4],83.5%
same,residual activity,[5],66.6%
same,inhibition,[6],33.5%
same,residual activity,[7],100%
same,residual activity,[8],60.2%
same,residual activity,[9],100%
same,residual activity,[10],100%
same,residual activity,[11],100%
same,residual activity,[12],100%
same,residual activity,[13],100%
same,residual activity,[14],100%
same,residual activity,[15],100%
same,residual activity,[16],100%
same,residual activity,[17],68.4%
same,residual activity,[18],78.6%
same,residual activity,[19],100%
same,residual activity,[20],100%
same,residual activity,[21],100%
same,residual activity,[22],87.2%
same,residual activity,[23],69.4%
same,residual activity,[24],78.8%
same,residual activity,[25],89.6%
same,residual activity,[26],81.2%
same,residual activity,[27],100%
same,residual activity,[28],100%
same,residual activity,[29],100%
same,residual activity,[30],100%
same,residual activity,[31],100%
same,residual activity,[32],46.6%
same,residual activity,[33],100%
same,residual activity,[34],91.9%
same,residual activity,[35],100%
same,residual activity,[36],85%
same,residual activity,[37],86.9%
same,residual activity,[38],100%
same,residual activity,[39],100%
same,residual activity,[40],87.1%
same,residual activity,[41],100%
same,residual activity,[42],100%
same,residual activity,[43],94.8%
same,residual activity,[44],100%
same,residual activity,[45],64.1%
